Measured values as given in publication PMC4999892 (Scientific Reports, 2016).
Bridges are numbered along the chain shown (N, C = ends). Where no end group is shown, it is not given here.

Experiments:
B. megaterium cells = assay: Membrane permeability assay with propidium iodide; format: cell-based, Bacillus megaterium
[1] = system: Aspergillus fumigatus CEA17; assay: Inhibition zone assay; format: cell-based; conditions: mutant (pyrG-), N.A. = no inhibition zone at 0.8–1.0 nmol peptides each well
Experimental: (§1) Antimicrobial activity of peptides was assessed by the inhibition zone assay. Membrane permeability assay was performed according to the method previously reported. Sources of microbial strains used here are listed in Supplementary Table S2.

Aspergillus nidulans A28 = assay: Inhibition zone assay; format: cell-based; conditions: N.A. = no inhibition zone at 0.8–1.0 nmol peptides each well
Experimental: as §1

[2] = system: Aspergillus nidulans RCho15; assay: Inhibition zone assay; format: cell-based; conditions: N.A. = no inhibition zone at 0.8–1.0 nmol peptides each well
Experimental: as §1

Aspergillus niger = assay: Inhibition zone assay; format: cell-based; conditions: N.A. = no inhibition zone at 0.8–1.0 nmol peptides each well
Experimental: as §1

[3] = system: Geotrichum candidum CCTCC AY 93038; assay: Inhibition zone assay; format: cell-based; conditions: N.A. = no inhibition zone at 0.8–1.0 nmol peptides each well
Experimental: as §1

[4] = system: Neurospora crassa CGMCC 3.1605; assay: Inhibition zone assay; format: cell-based; conditions: N.A. = no inhibition zone at 0.8–1.0 nmol peptides each well
Experimental: as §1

[5] = system: Aspergillus fumigatus CEA17, A. nidulans A28 and RCho15, A. niger, Geotrichum candidum, Neurospora crassa; conditions: summary of Table 1; range stated for DtDRS-1 and DRS together
[6] = not given; remark: listed apart in the source
[7] = not given; remark: listed apart in the source
[8] = not given; remark: listed apart in the source
[9] = system: Bacillus megaterium CGMCC 1.0459; assay: Inhibition zone assay; format: cell-based; conditions: Gram-positive, N.A. = no inhibition zone at 0.8–1.0 nmol peptides each well
Experimental: as §1

[10] = system: Micrococcus luteus CGMCC 1.0290; assay: Inhibition zone assay; format: cell-based; conditions: Gram-positive, N.A. = no inhibition zone at 0.8–1.0 nmol peptides each well
Experimental: as §1

[11] = system: Xanthomonas oryzae pv.oryzae; conditions: inhibition zone assay; Gram-negative; N.A. = no inhibition zone at 0.8–1.0 nmol peptides each well
[12] = system: Bacillus megaterium and Micrococcus luteus; assay: Inhibition zone assay, summary over two Gram-positive bacteria; format: cell-based; conditions: summary of Table 1
[13] = system: G. candidum and N. crassa; assay: Inhibition zone assay, summary over two fungal species; format: cell-based; conditions: summary of Table 1
[14] = peptides at 5× CL, milder than positive control meucin-18

Compound | Effect on membrane integrity (propidium iodide fluorescence) (B. megaterium cells; vancomycin at 10× CL, negative control) | CL (lethal concentration) [1] [µM] | CL (lethal concentration) (Aspergillus nidulans A28) [µM] | CL (lethal concentration) [2] [µM] | CL (lethal concentration) (Aspergillus niger) [µM] | CL (lethal concentration) [3] [µM] | CL (lethal concentration) [4] [µM] | Lethal concentrations (CL), range over sensitive fungi [5] [µM] | Turns content [%] | α-Helix content [6] [%] | β-Sheet content [7] [%] | Unordered content [8] [%] | CL (lethal concentration) [9] [µM] | CL (lethal concentration) [10] [µM] | Effect on membrane integrity (propidium iodide fluorescence) (B. megaterium cells; [14]) | CL (lethal concentration) [11] [µM] | CL, range over two Gram-positive bacteria [12] [µM] | CL, range over two fungal species [13] [µM]
CN[C@H](CC(C)C)C(=O)N[C@H]1C(=O)N[C@@H](CC(N)=O)C(=O)N[C@H]2C(=O)N[C@H]3C(=O)N[C@H](C(=O)N[C@H](C(=O)O)c4cc(O)cc(O)c4-c4cc3ccc4O)[C@H](O)c3ccc(c(Cl)c3)Oc3cc2cc(c3O[C@@H]2O[C@H](CO)[C@@H](O)[C@H](O)[C@H]2O[C@H]2C[C@](C)(N)[C@H](O)[C@H](C)O2)Oc2ccc(cc2Cl)[C@H]1O [vancomycin, reference compound] | no fluorescence increase | – | – | – | – | – | – | – | – | – | – | – | – | – | – | – | – | –
DCLSGRYKGPCAVWDNETCRRVCKEEGRSSGHCSPSLKCWCEGC (disulfide 2-44, 11-33, 19-39, 23-41) [DRS, Drosomycin, reference compound] | – | 0.30 | 0.45 | 1.73 | 1.32 | 1.89 | 0.1 | 0.1 to 2.6 | – | – | – | – | – | – | – | – | – | –
DCLSGRYKGPCAVWDNETCRRVCKEEGRVSGHCSPSLKCWCEGC (disulfide 2-44, 11-33, 19-39, 23-41) [DtDRS-1] | – | 0.33 | 1.25 | 2.03 | 2.63 | 2.50 | 0.3 | 0.1 to 2.6 | – | – | – | – | – | – | – | – | – | –
DFKSGKFKGGCMAWSGEKCRRLCKEQGAVSGHCSSNFKCWCEM (disulfide 11-33, 19-39, 23-41 (inferred)) [DtDRS-11] | – | – | – | – | – | – | – | – | 15 | 21 | 16 | 48 | 4.41 | 3.06 | immediate fluorescence increase | 8.84 | – | –
DFLSGKFKGGCMMWSGEKCRRLCKEQGAVSGHCSTNFKCWCEE (disulfide 11-33, 19-39, 23-41 (inferred)) [DtDRS-11d] | – | – | – | – | – | – | – | – | 15 | 18 | 16 | 53 | 0.98 | 1.08 | immediate fluorescence increase | – | 0.98 to 1.08 | –
RDFLSGTFGGPCWAWSGEKCRRLCIEEGHVSGHCSGAMKCWCEG (disulfide 12-34, 20-40, 24-42 (inferred)) [DRS-3-WDB] | – | – | – | – | – | 4.89 | 3.72 | – | 18 | 19 | 22 | 41 | – | – | – | – | – | 3.72 to 4.89
